Laboratory results taken from article PMC2857986 (Journal of the American Chemical Society, 2010).

Experiment: Gel formation and CD of expected cleavage fragments
Type: physicochemical

KSLSLS [MDP4a]
Gel formation / self-assembly (phosphate buffer, physiological pH, in words): no longer able to assemble and form insoluble aggregates
CD spectrum (secondary structure) (see supporting information): simple random coil signature
